Measurements taken from US20240285730A1, “COMPOSITIONS AND METHODS FOR THE TREATMENT OF GRAFT VERSUS HOST DISEASE” (VectivBio AG, priority 2021, published 2024).
Entries after “also recorded” stand apart in the source; their conditions may differ. Square brackets hold non-standard residues; d marks the D form. Peptide text beside a SMILES is read from it. ξ: configuration not given here. Ile(3ξ) = CCC(C)[C@H](N)C(=O)O; Thr(3ξ) = CC(O)[C@H](N)C(=O)O; Nle = CCCC[C@H](N)C(=O)O

Key:
WBC, NEU and LYMPH = experiment: Melphalan-induced immunosuppression (WBC, NEU, LYMPH); format: in vivo, Balb/c mice
Description: In a third experiment, the effect of apraglutide on melphalan-induced immunosuppression was assessed (FIG. 13). Three groups of Balb/c mice were included: (A) vehicle; (B) melphalan on Day 9; (C) melphalan on Day 9, apraglutide pre-treatment on Days 1, 3, 5, 7 and continued as co-administration on Days 9, 11, and 13. WBC, NEU and LYMPH were assessed.

[1] = system: fecal microbiota (Bacteroidetes, Firmicutes); experiment: Fecal microbiota composition during cytarabine chemotherapy (16S taxonomical meta-sequencing); format: in vivo, Balb/c mice; details: for changes in the composition of bacterial species (Bacteroidetes, Firmicutes): Days 0 to 18
[2] = system: cytarabine-induced toxicity; experiment: Apraglutide dose-response study with cytarabine chemotherapy; format: in vivo, BALB/cJ female mice; details: for polymorphonuclear (PMN) cell count: cytarabine alone or combined with hGLP-2 or apraglutide
Description: The apraglutide dose-dependent impact on the immunosuppressive effect of cytarabine was evaluated. The effect of cytarabine treatment on polymorphonuclear (PMN) cell count was determined (FIG. 20). […] In a separate study during which animals treated with cytarabine alone or in combination with apraglutide initiated before cytarabine (Days-4 to +12) were allowed to survive for 4 additional weeks.

human leukemia cells = details: vs vehicle
Description: In a first experiment, cytarabine's anti-tumor effects were assessed in leukemic NOD/SCID mice (FIG. 11a). Apraglutide or vehicle was administered on Days −4 to 4. Cytarabine or vehicle was administered on Days 0-4. Bone marrow and spleen samples were collected on Day 7 and percentage of hCD45+ cells determined.

[3] = system: acute gastrointestinal GvHD mouse model; experiment: Acute GvHD mouse model, first experiment (8.5 Gy irradiation + allogeneic bone marrow/spleen cell transplant); format: in vivo, BALB/cJ male mice
Description: Mouse #3 (Group A), #13 (Group B) and #20 (Group B) were administered the cells by subcutaneous injection rather than intravenously. Mouse #5 (Group B) and #10 (Group B) received half the cells by intravenous injection and half by subcutaneous injection.
Various histological parameters of the jejunum were also measured, including single cell necrosis levels, necrosis of all crypts, shortening of villi, cryptal hyperplasia (regenerative), cell infiltrate, and cryptal abscess. These histological parameters were graded on a standard histological grading system (1 to 3). […] These indicate that the administration of apraglutide has a protective effective against jejunal mucosal damages induced by irradiation and GvHD.

[4] = system: human peripheral blood mononuclear cell (hPBMC) engraftment; experiment: Engraftment of human PBMC in total-body-irradiated NOG mice; format: in vivo, immunodeficient (NOG) mice
Description: Engraftment rate was determined through CD45 expression in blood, bone marrow and spleen.

[5] = system: chemotherapy-induced gastrointestinal (GI) damage; experiment: Chemotherapy-induced (cytarabine or melphalan) intestinal damage in mice; format: in vivo, Balb/c mice
Description: In a first experiment, 4 groups of Balb/c mice: (A) vehicle only; (B) cytarabine on Days 5-9, no apraglutide given; (C) cytarabine on Days 5-9; concomitant apraglutide on Days 5-18; (D) cytarabine on Days 5-9; pre-treatment apraglutide on Days 1, 3, and continued as concomitant treatment on Days 5, 8, 11, 14, and 17. Treatment groups were dosed with 30 mg/kg cytarabine and/or apraglutide 3.3 mg/kg.
In a second experiment, 3 treatment groups of Balb/c mice: (A) vehicle only; (B) melphalan on Day 9, no apraglutide; (C) melphalan on Day 9; pre-treatment apraglutide on Days 1, 3, 5, 7 and continued as concomitant treatment on Days 9, 11, and 13.
In both models, mice that received vehicle without any treatment served as controls. Intestinal tissue histology, body weight, survival, and plasma citrulline, a marker of total mucosal mass and intestinal growth, was assessed in both models.

blood cell count = experiment: Cytarabine-induced immunosuppression (blood cell counts); format: in vivo, Balb/c mice; details: 4 weeks after the end of treatment
Description: In a second experiment, apraglutide's effect on the ability of cytarabine to induce immunosuppression was assessed. The experiment included three groups of Balb/c mice: (A) vehicle; (B) cytarabine on Days 5-9; (C) cytarabine on Days 5-9, concomitant apraglutide on Days 5-18. RBC, platelets, WBC, NEU and LYMPH were assessed. A cohort was allowed to survive for 4 weeks to assess the effect of apraglutide on immunosuppression recovery (FIG. 12).

[6] = system: acute gastrointestinal GvHD mouse model; experiment: Acute GvHD mouse model, second experiment (7.0 Gy irradiation + allogeneic transplant)
Description: In a second experiment BALB/cJ male mice were separated into three groups, Group A, Group B and Group C. Groups A and B consisted of 10 mice and Group C consisted of 5 mice.
Mice in Group A received subcutaneous injections of apraglutide in an amount of 3 mg/kg/mouse (administered in 300 μl of vehicle), every second day from Day −9 to Day +7 (Days: −9, −7, −5, −3-1, +1, +3, +5, +7).
Mice in Group B received subcutaneous injections of 300 μl of vehicle control every second day starting from Day −9 to Day +7 (Days: −9, −7, −5, −3−1, +1, +3, +5, +7).
Mice in Group C received subcutaneous injections of 300 μl of vehicle control every second day starting from Day −9 to Day +7 (Days: −9, −7, −5, −3−1, +1, +3, +5, +7).
On Day −1 of the experiment, all mice in Groups A and B were irradiated with 7.0 Gy using an linac x-ray source. Group C was not irradiated but were injected with the vehicle only.
On Day 0 of the experiment, bone marrow and T cells from C57BL/6J mice were collected, prepared and transplanted into the mice of Group A and Group B. Each mouse in Group A and Group B was intravenously injected with 10 million bone marrows cells extracted from the femurs of the C57BL/6J mice and 2.5 million spleen cells extracted from the C57BL/6J mice.
Morbidity, mortality, body weight, clinical signs (diarrhea, appearance and behavior), length of intestinal segments, and histopathology of the intestine, skin, spleen and liver were monitored in the mice of Group A, Group B and Group C. All mice were sacrificed at Day +14 at the latest.

[7] = system: acute GVHD-induced intestinal damage; experiment: TBI-induced intestinal damage with allogeneic transplantation (Example 2, second experiment)
Description: In a second experiment, TBI-induced intestinal damaged BALB/cJ mice received allogeneic transplantation and were treated with apraglutide (3.3 mg/kg) or vehicle on Days −9, −7, −5, −3-1, +1, +3, +5, +7. Intestinal damage indicative of GvHD (histological changes, length, hemorrhage, inflammation), body weight, and survival were assessed.

[8] = apraglutide 3 mg/kg s.c., histological grading 1 to 3, vs vehicle
[9] = apraglutide 3.3 mg/kg vs vehicle

## N[C@@H](Cc1ccc(N(CCCl)CCCl)cc1)C(=O)O [melphalan, Melphalan, reference compound]
WBC, NEU and LYMPH; melphalan on Day 9, with or without apraglutide
  WBC and LYMPH vs vehicle: severe decreases

## Nc1ccn([C@@H]2O[C@H](CO)[C@@H](O)[C@@H]2O)c(=O)n1 [Cytarabine only, Cytarabine]
[1]; Day 0
  Bacteroidetes, mean (Table 1b): 18.3
  Firmicutes, mean (Table 1b): 78.7
  unclassified phylum, mean (Table 1b): 1.3
[1]; Day 18
  Bacteroidetes, mean (Table 1b): 48.7
  Firmicutes, mean (Table 1b): 49.6
  unclassified phylum, mean (Table 1b): 1.2
[1]
  changes in the composition of bacterial species (Bacteroidetes, Firmicutes): increasing the Bacteroidetes population and decreasing the proportion of Firmicutes bacteria
[2]
  polymorphonuclear (PMN) cell count: depleted PMN counts
Human leukemia cells
  reduction in human leukemia cells: significantly greater than vehicle

## CCCC[C@H](NC(=O)[C@H](CCC(=O)O)NC(=O)[C@H](CC(=O)O)NC(=O)[C@H](CO)NC(=O)[C@H](Cc1ccccc1)NC(=O)[C@H](CO)NC(=O)CNC(=O)[C@H](CC(=O)O)NC(=O)CNC(=O)[C@@H](N)Cc1c[nH]cn1)C(=O)N[C@H](Cc1ccccc1)C(=O)N[C@H](C(=O)N[C@H](C(=O)N[C@@H](CC(C)C)C(=O)N[C@@H](CC(=O)O)C(=O)N[C@@H](CC(C)C)C(=O)N[C@@H](CC(C)C)C(=O)N[C@@H](C)C(=O)N[C@@H](C)C(=O)N[C@@H](CCCNC(=N)N)C(=O)N[C@@H](CC(=O)O)C(=O)N[C@@H](Cc1ccccc1)C(=O)N[C@H](C(=O)N[C@@H](CC(N)=O)C(=O)N[C@@H](Cc1c[nH]c2ccccc12)C(=O)N[C@@H](CC(C)C)C(=O)N[C@H](C(=O)N[C@@H](CCC(N)=O)C(=O)N[C@H](C(=O)N[C@@H](CCCCN)C(=O)N[C@H](C(=O)N[C@H](C(=O)N[C@@H](CC(=O)O)C(N)=O)C(C)O)C(C)CC)C(C)O)C(C)CC)C(C)CC)C(C)CC)C(C)O (stereo partly drawn) [apraglutide] (H-HGDGSFSDE[Nle][dF][Thr(3ξ)][Ile(3ξ)]LDLLAARDF[Ile(3ξ)]NWL[Ile(3ξ)]Q[Thr(3ξ)]K[Ile(3ξ)][Thr(3ξ)]D-NH2)
[3]; 8.5 Gy + C57BL/6J bone marrow/spleen cells, apraglutide 3 mg/kg s.c. every second day Day −9 to +7, vs vehicle group
  colon length: increased colon lengths that were nearly the same as the control mice
[3]; [8]
  mean severity score of the regenerative cryptal hyperplasia (jejunum): slightly increased
  overall mean severity score of mucosal degenerative/inflammatory changes in the jejunum: slightly decreased
[4]; apraglutide 3.3 mg/kg Days −6 to 18, TBI 1.44 Gy, hPBMC 3×10^7
  engraftment rate in blood, spleen and bone marrow (CD45 expression): not affected
[4]; apraglutide vs vehicle
  hCD45+ cells infiltration in the intestinal wall: no difference
[5]; apraglutide co-administration, 3.3 mg/kg
  degenerative intestinal changes (villi and crypt atrophy) caused by cytarabine or melphalan: reduced
[5]; apraglutide with cytarabine or melphalan
  chemotherapy-induced weight loss: attenuated
[5]; vs vehicle-only or chemotherapy-only groups
  overall survival: improved overall survival
[5]; with apraglutide
  weight of duodenum, ileum and jejunum: increased in weight
[1]
  changes in the composition of bacterial species (Bacteroidetes, Firmicutes): the effect was reduced
Blood cell count
  recovery of hematological parameters: did not impact
WBC, NEU and LYMPH; combination with apraglutide
  impact on cytarabine- or melphalan-induced immunosuppression: no negative impact
[2]; all apraglutide-treated groups
  improvement in animal survival vs cytarabine alone: statistically significant
[2]; apraglutide 0.33 mg/kg and 1.1 mg/kg with cytarabine vs cytarabine alone
  plasma citrulline concentrations: improvement in citrulline concentrations
[2]
  polymorphonuclear (PMN) cell count: not reversed
[2]; cytarabine combined with 0.11 mg/kg apraglutide or hGLP-2 (0.60 mg/kg twice daily)
  initial weight loss: did not decrease initial weight loss
[6]; 7.0 Gy + allogeneic transplant, apraglutide 3 mg/kg s.c.
  mice survived past Day 9: 40%
[6]; 7.0 Gy + allogeneic transplant, apraglutide 3 mg/kg s.c. Day −9 to +7
  median survival: 9 days
[6]; Group A
  body weight of surviving mice beyond Day 9: regained body weight
[6]; Groups A, B and C compared
  length of the small intestine: no differences were observed
[6]; apraglutide 3 mg/kg s.c. vs vehicle, both TBI/BMT
  weight loss, Group A vs Group B: No significant difference
[6]; apraglutide initiated before TBI/BMT vs TBI/BMT animals
  animal survival (Kaplan-Meier): enhanced survival; also recorded: significant difference relative to TBI/BMT animals
[6]; score 0 least severe to 4 most severe, Group A, 10 mice
  mice with intestinal pathological score of 0: four out of out of ten
[7]; apraglutide 3.3 mg/kg Days −9 to +7
  lymphocyte engraftment: successfully achieved
[7]; [9]
  median survival: similar
  post-mortem histological examination, mucosal degenerative/inflammatory changes: less mucosal degenerative/inflammatory changes
  weight loss: similar
[7]; on Day +9, apraglutide 3.3 mg/kg
  overall survival: 40%
